Measurements taken from patent US20230117361A1, “COMPOSITION COMPRISING MIR-335” (AGENCY FOR SCIENCE, TECHNOLOGY AND RESEARCH, priority 2019, published 2023).

Assays:
[1] = tested on: AD-like symptoms; settings: mice, two independent studies [24, 25]; cited from earlier work
[2] = tested on: miR-335; experiment: miR-335 expression in N/TERT-1 cells treated with HDAC inhibitors (qRT-PCR, in situ hybridization); format: cell-based, human
Protocol: Paraffin wax-embedded skin tissue sections (5 μm) were dewaxed, rehydrated and boiled in pre-treatment solution (Panomics) for 5 minutes and subsequently treated with protease (Panomics) for 30 minutes at 37° C. Locked nucleic acid (LNA) probes were then added to the sections and incubated at 51° C. for 4 hours. The LNA probes used are specific to miR-335 and scrambled (non-targeting) sequences and are 5′ and 3′ digoxigenin- (DIG-) labelled. After washing the sections sequentially with 5× saline-sodium citrate (SSC), 1×SSC and 0.3×SSC buffer, they were blocked with 10% goat serum and incubated with anti-DIG alkaline phosphatase (Roche) overnight at 4° C. Fast Red Substrate (Panomics) were used to detect miRNA-bound LNA probes. […]
Total RNA was isolated using miRCURY™ RNA isolation kit (Exiqon). For miRNA quantification, cDNA was synthesized using Taqman® miRNA reverse transcription kit (Life Technologies) and the expression level of miRNAs was quantified by TaqMan Gene Expression Assays (Applied Biosystems) in 7900 fast RT-PCR system (Applied Biosystems) using Taqman miRNA-specific primers. […] The expression levels of mRNAs were measured using SYBR green PCR Master Mix (Applied Biosystems). […] The expression of a gene/miRNA was defined from threshold cycle (Ct), and relative transcript abundance was calculated using ddCT method. […]

[3] = tested on: N/TERT-1 keratinocytes; experiment: Expression of MEST and keratinocyte differentiation markers (IVL, SPRR2F, TGM1) in N/TERT-1 cells treated with HDAC inhibitors; format: cell-based, human
Protocol: Cells were fixed and permeabilized with ice-cold acetone/methanol for 10 minutes. After washing in phosphate buffered saline (PBS), the cells were incubated with 10% goat serum for 30 minutes. The cells were subsequently incubated with primary antibodies for 2 hours at room temperature or overnight at 4° C. After washing three times with PBS with 0.1% Tween 20, the cells were incubated in dark with Alexa Fluor secondary antibodies (Invitrogen) for an hour. Nuclei were stained using DAPI. After washing with PBS, the cells were mounted onto slides with FluorSave reagent (EMD Millipore). Images were taken with an FV1000 inverted confocal microscope (Olympus) using Olympus FluoView.
Total RNA was isolated using miRCURY™ RNA isolation kit (Exiqon). For miRNA quantification, cDNA was synthesized using Taqman® miRNA reverse transcription kit (Life Technologies) and the expression level of miRNAs was quantified by TaqMan Gene Expression Assays (Applied Biosystems) in 7900 fast RT-PCR system (Applied Biosystems) using Taqman miRNA-specific primers. For mRNA expression, cDNA was synthesized using SuperScript® III Reverse Transcriptase (Life Technologies) according to manufacturer's protocol. The expression levels of mRNAs were measured using SYBR green PCR Master Mix (Applied Biosystems). U6 and RPLP0 were used as endogenous normalization controls for miRNA and protein-coding genes, respectively. The expression of a gene/miRNA was defined from threshold cycle (Ct), and relative transcript abundance was calculated using ddCT method. All reactions were run in triplicates. The primers were designed using the Primer3 software and the NCBI design primer tools. The primers were checked for their GC content and any secondary structure formation using OligoCalc.
A panel of 42 HDAC inhibitors (HDACi) covering the majority of type I, II and pan HDACis were purchased from Selleckchem. N/TERT-1 grown to confluence were treated with HDACi at a final concentration of 1 μM from a 100 μM stock. Control wells were treated with DMSO at a final concentration of 1%. […]

[4] = tested on: N/TERT-1 keratinocytes; experiment: Cornified envelope assay; format: cell-based, human; settings: N/TERT-1 treated with HDAC inhibitor vs control, FIG. 6C, 6D
Protocol: N/TERT-1 keratinocytes were grown in DF-K media until confluent, and then shifted to high Ca^2+ conditions (1.5 mM) for a further 7 days in fresh DF-K media to induce terminal differentiation and cornified envelope formation, and the number of cornified envelopes (CEs) assessed following the method of Rice et al. In brief, cells were trypsinized and resuspended at 2.0×10^6 cells/ml in dissociation buffer containing 0.1 M Tris-HCl buffer pH 8.0, 2% SDS and 20 mM dithiothreitol. CEs were harvested by boiling the samples for 15 minutes at 100° C. Detergent- and reducing agent-resistant CEs were collected as an insoluble pellet by centrifugation at 4000×g for 10 minutes. CEs were counted with a hemocytometer, and CE formation was expressed as a percentage of input cell number.

[5] = tested on: human skin biopsies; experiment: Ex-vivo human skin organ culture model, topical treatment
Protocol: Paraffin wax-embedded skin tissue sections (5 μm) were dewaxed, rehydrated and boiled in pre-treatment solution (Panomics) for 5 minutes and subsequently treated with protease (Panomics) for 30 minutes at 37° C. Locked nucleic acid (LNA) probes were then added to the sections and incubated at 51° C. for 4 hours. The LNA probes used are specific to miR-335 and scrambled (non-targeting) sequences and are 5′ and 3′ digoxigenin- (DIG-) labelled. After washing the sections sequentially with 5× saline-sodium citrate (SSC), 1×SSC and 0.3×SSC buffer, they were blocked with 10% goat serum and incubated with anti-DIG alkaline phosphatase (Roche) overnight at 4° C. Fast Red Substrate (Panomics) were used to detect miRNA-bound LNA probes. Tissue sections were counterstained with 4′,6-diamidino-2-phenylindole dihydrochloride (DAPI) (Sigma-Aldrich) and mounted with FluorSave™ reagent (EMD Millipore). The slides were examined with an FV1000 inverted confocal microscope (Olympus) and images were acquired using Olympus FluoView with TRITC and DAPI filters.
Paraffin wax-embedded skin tissue sections (5 μm) were dewaxed and rehydrated through decreasing concentration of ethanol. Endogenous peroxidases in tissue sections were quenched by 3% H2O2 in absolute methanol for 30 minutes. The sections were then boiled in antigen retrieval solution (pH 6, DAKO). Sections were then blocked in 10% goat serum for 30 minutes and incubated with primary antibodies overnight at 4° C. After incubation with primary antibodies, tissues were incubated with anti-rabbit or -mouse Envision-labelled polymer reagents (DAKO) for 1 hour at room temperature. The staining was visualized by 3,3′-diaminodbenzidine (DAB) substrate chromogen kit (DAKO). Slides were counterstained with haematoxylin and examined with a Zeiss AxioImager Z1 upright light microscope after mounting with CytosealTM60 mounting medium (Richard Allan Scientific). Images were acquired using Zeiss Zen software.
Total RNA was isolated using miRCURY™ RNA isolation kit (Exiqon). For miRNA quantification, cDNA was synthesized using Taqman® miRNA reverse transcription kit (Life Technologies) and the expression level of miRNAs was quantified by TaqMan Gene Expression Assays (Applied Biosystems) in 7900 fast RT-PCR system (Applied Biosystems) using Taqman miRNA-specific primers. For mRNA expression, cDNA was synthesized using SuperScript® III Reverse Transcriptase (Life Technologies) according to manufacturer's protocol. The expression levels of mRNAs were measured using SYBR green PCR Master Mix (Applied Biosystems). […] The expression of a gene/miRNA was defined from threshold cycle (Ct), and relative transcript abundance was calculated using ddCT method. […]

[6] = tested on: N/TERT-1 cells; experiment: HDAC inhibitor screening: toxicity, growth arrest and differentiation; format: cell-based, human; settings: HDACi 1 μM, 48 hrs
Protocol: A panel of 42 HDAC inhibitors (HDACi) covering the majority of type I, II and pan HDACis were purchased from Selleckchem. N/TERT-1 grown to confluence were treated with HDACi at a final concentration of 1 μM from a 100 μM stock. Control wells were treated with DMSO at a final concentration of 1%. After 48 hrs of treatment, cells were either processed for total RNA isolation or fixed and stained for human involucrin by immunocytochemistry.

[7] = tested on: promoter region of miR-335 and MEST; experiment: Chromatin immunoprecipitation (ChIP)-qPCR at the promoter region of miR-335 and MEST; format: cell-based, human
Protocol: Cells were crosslinked with 1.5% formaldehyde for 10 minutes at 37° C. The reaction was stopped by adding glycine to the final concentration of 125 mM for 5 minutes at 37° C. Fixed cells were washed twice with ice-cold PBS, scraped and centrifuged. The pellets were then incubated with Buffer A (10 mM HEPES Ph7.9, 10 mM KCl, 0.1 mM EGTA, 1 mM DTT and 0.5 mM PMSF) supplemented with 1×protease inhibitor cocktail (Roche) and 10% glycerol on ice for 30 min, followed by 0.5% NP-40 for 5 minutes to lyse cytoplasmic membrane. The cells were then centrifuged at 1500×g for 5 minutes to pellet down nuclei. Nuclear pellet was then lysed in ChIP buffer (50 mM Tris pH 7.4, 150 mM NaCl, 5 mM EDTA, 0.5% NP-40, 1% Triton X-100, 0.05% SDS, 1×protease inhibitor cocktail). Nuclear chromatin was sheared by sonication for 15 min (30 sec on and 30 sec off) in Bioruptor® water bath sonicator. The sonicated samples were centrifuged, and the supernatant containing the sheared chromatin was harvested. For each ChIP reaction, 250 μl of chromatin extract was incubated with appropriate antibodies at 4° C. overnight on a rotary wheel. 50 μl of Protein A sepharose resin (precoated with 0.5% BSA and 0.2 mg/mL tRNA) was then added to the immunoprecipitated samples and incubated for 2 hours. […] Fold enrichment of the genes was calculated using ddCt method with input Ct values as normalization control.

## CC(/C=C/C(=O)NO)=C\[C@@H](C)C(=O)c1ccc(N(C)C)cc1 [TSA, trichostatin A]
[1]
  development of AD-like symptoms: suppress the development of AD-like symptoms

## O=C(/C=C/c1cccc(S(=O)(=O)Nc2ccccc2)c1)NO [belinostat, (E)-N-hydroxy-3-(3-(N-phenylsulfamoyl)phenyl)acrylamide]
[2]; N/TERT-1 cells, FIG. 6B upper panel
  expression of miR-335 by in situ hybridization: Induced expression of miR-335
[3]; N/TERT-1 cells vs control cells, FIG. 6B lower panel
  expression of IVL by immunocytochemistry: significant expression of IVL
[4]
  number of cornified envelopes (CEs): increased number of CEs
[5]; human skin biopsies vs mock treated skin, FIG. 6F
  expression of miR-335 in epidermal layers by in situ hybridization: higher expression of miR-335
[5]; human skin biopsies, FIG. 6G
  levels of IVL by immunohistochemistry: significant increase in the levels of IVL
[5]; human skin biopsies, FIG. 11
  filaggrin (FLG) protein by immunohistochemistry: induced significant levels of filaggrin
[5]; human skin biopsies, topical in acetone, 1 mM, daily for six days, FIG. 6E
  expression of miR-335 by quantitative RT-PCR: significant expression of miR-335
[6]
  toxicity: low toxicity

## CCCC(=O)[O-].[Na+] [sodium butyrate]
[2]; N/TERT-1 keratinocytes, qRT-PCR, FIG. 5B
  relative expression of miR-335: significant miR-335 upregulation
[3]; N/TERT-1, qRT-PCR, FIG. 5C
  relative expression of MEST: significantly increased MEST expression
[3]; N/TERT-1, qRT-PCR, FIG. 5F
  relative transcript abundance of differentiation markers IVL, SPRR2F and TGM1: significant upregulation
[7]; N/TERT-1, ChIP, FIG. 5D
  enrichment of H3K4ac at the upstream region of MEST and miR-335: significant increase in the enrichment of H3K4ac
[7]; keratinocytes, ChIP
  HDAC2 enrichment in the promoter region of miR-335: reduced
